Values of other authors, collected in patent publication US20050250804A1, “Pharmaceutical gel formulations” (Glenmark Pharmaceuticals Limited, priority 2004, published 2005).

Legend:
[1] = system: Interleukin-2, interferon gamma, Interleukin-4 and Interleukin-10 cytokine synthesis in human T cells
human subjects = details: repeated insult patch test, 50 human subjects, total of 15 applications; manufacturer's brochure

CC[C@@H]1/C=C(\C)C[C@H](C)C[C@H](OC)[C@H]2O[C@@](O)(C(=O)C(=O)N3CCCC[C@H]3C(=O)O[C@H](/C(C)=C/[C@@H]3CC[C@H](Cl)[C@H](OC)C3)[C@H](C)[C@@H](O)CC1=O)[C@H](C)C[C@@H]2OC [pimecrolimus, (1R,9S,12S,13R,14S,17R,18E,21 S,23S,24R,25S,27R)-12-[(1E)-2-{(1R,3R,4S)-4-chloro-3-methoxycyclohexyl}-1-methylvinyl]-17-ethyl-1,14-dihydroxy-23,25-dimethoxy-13,19,21,27-tetramethyl-11,28-dioxa-4-aza-tricyclo[22.3.1.04,9]octacos-18-ene-2,3,10,16-tetraone]
concentration inhibiting IL-2, interferon gamma (Th1-type), IL-4 and IL-10 (Th2-type) cytokine synthesis [1]: nanomolar concentrations

CN1CCCC1=O [Pharmasolve®, N-methyl-2-pyrrolidone]
PII (rabbit skin): 0.5
skin irritation (rabbit skin): practically nonirritating
primary dermal irritation / sensitization (human subjects): neither a primary dermal irritant nor a sensitizer
